# Source: patent US5466675A, “Immunological activity of rhamnolipids” (priority 1992, dated 1995)
# Key:
# [1] = system: oxazolone-induced delayed type hypersensitivity; assay: immunostimulation (cellular): oxazolone-induced delayed type hypersensitivity; assay type: in vivo, mouse; conditions: IP 100 × 5 mg/kg
# Procedure: The test substance was administered i.p to groups of 5 mice, 1 hour before application (sensitization) of oxazolone (0.1 ml of 5% solution) to the pre-shaven abdominal surface. Seven days later, 25 μl of a 2% solution of oxazolone was applied (challenge) to the right ear, with vehicle being applied to the left ear. After 24 hours, each mouse was sacrificed and ear thickness measured with a Dyer Model micrometer gauge. Greater than 30 percent enhancement is considered immunostimulant activity.
# [2] = system: Candida albicans; assay: immunorestoration: immunosuppression with cyclophosphamide and infection with Candida albicans; assay type: in vivo, mouse (ICR, female); conditions: for Survivor No.: n = 10
# Description: […] One day after the last immunosuppressant dose, the mice were challenged with a suspension of C. albicans sufficient to result in 90 to 100 percent mortality within 10 days in the vehicle treated control group. A greater than 30 percent survival for any drug treated group is considered significant, and possibly a result of immunorestorant activity.
# [3] = system: oxazolone-induced delayed type hypersensitivity; assay: immunosuppression (cellular): oxazolone-induced delayed type hypersensitivity; assay type: in vivo, mouse (ICR, female); conditions: IP 30 × 5 mg/kg
# Procedure: The shaved abdominal surface of groups of 5 mice were sensitized by application of 0.1 ml of 5% oxazolone. The test substance was administered i.p after 1 hour and then daily for 5 consecutive doses. After an additional 4 days, the animals were challenged by application of 25 ul of 5% oxazolone to the right ear. Twenty-four hours later, ear thickness was measured with a Dyer Model micrometer gauge.
# A 50 percent or greater decrease in drug-treated versus control animals is considered significant immunosuppressant activity.
# [4] = system: sheep red blood cell (SRBC) hemagglutination; assay: immunosuppression (humoral): sheep red blood cell (SRBC) hemagglutination; assay type: in vivo, mouse (ICR, female); conditions: IP 30 × 3 mg/kg
# Procedure: (§1) Groups of 6 mice were sensitized by the IV injection of 0.2 ml of a 2% SRBC suspension. On the 9th day following sensitization, blood samples were withdrawn from the orbital sinus and equal parts of complement inactivated serum from the group of 6 mice were pooled to yield a single 0.25 ml sample. Serial 2-fold dilutions were then carried out 10 times in the presence of added complement. […] Serum titers of less than 16 or greater than 128 are considered significant and indicate possible immunosuppressant and immunostimulant activity, respectively.
# (§2) For immunostimulant activity, test substance or vehicle was administered i.p. to groups of mice for 3 consecutive days, and sensitized to SRBCs 2 hours after the third (last) injection. For immunosuppressant activity, test substance or vehicle was administered i.p. to groups of mice for 3 consecutive days beginning 2 hours after sensitization to SRBCs.
# [5] = system: sheep red blood cell (SRBC) hemagglutination; assay: immunostimulation (humoral): sheep red blood cell (SRBC) hemagglutination; assay type: in vivo, mouse (ICR, female); conditions: IP 30 × 3 mg/kg
# Procedure: as §1, §2
# [6] = system: Candida albicans; assay: immunomodulation: infection with Candida albicans; assay type: in vivo, mouse (ICR, female); conditions: IP 30 mg/kg
# Procedure: The test compound or vehicle was administered i.p. to groups of 10 mice 1 hour before IV, challenge with suspension of C. albicans sufficient to result in 90 to 100% mortality within 10 days in the vehicle treated control group. A greater than 30 percent survival for any treated group is considered very significant, and possibly a result of immunomodulation, while an increase of 20% is considered a moderate immunomodulation activity.
# [7] = system: phospholipase A2; conditions: Japanese patent No. 63 253 025; cited from earlier work
# [8] = IP 100 × 3 mg/kg + cyclophosphamide
# [9] = cyclophosphamide alone, PO 30 × 3 mg/kg
compound,measurement,setting,value
"CC(C)(N1CC1C#N)N1CC1C(N)=O (stereo not shown) [Azimexone, reference compound]",Swelling Inc. %,[1],31%
same,Swelling (R -L),[1]; X ± SEM,22.8 +/- 0.9 × 0.01 mm
same,"ear thickness, Left Ear (No Oxa.)",[1]; X ± SEM,21.4 +/- 0.5 × 0.01 mm
same,"ear thickness, Right Ear (24 hrs Oxa.)",[1]; X ± SEM,44.2 +/- 0.7 × 0.01 mm
same,"Death, days post-inoculum 0-1",[2]; [8],2 #/10 Mice
same,"Death, days post-inoculum 2-3",[2]; [8],1 #/10 Mice
same,"Death, days post-inoculum 4-6",[2]; [8],1 #/10 Mice
same,"Death, days post-inoculum 7-9",[2]; [8],1 #/10 Mice
same,Response Inc. %,[2]; [8],30%
same,Survivor No.,[2]; [8],5
"O=P1(N(CCCl)CCCl)NCCCO1 (stereo not shown) [Cyclophosphamide, reference compound]",Swelling Inh. %,[3],59%
same,Swelling (R -L),[3]; X +/- SEM,10.6 +/- 1.8 × 0.01 mm
same,"ear thickness, Left Ear (No Oxa.)",[3]; X +/- SEM,19.0 +/- 0.4 × 0.01 mm
same,"ear thickness, Right Ear (24 hrs Oxa.)",[3]; X +/- SEM,29.6 +/- 2.2 × 0.01 mm
same,SERUM TITER (Reciprocal Serum Dilution),[4],4
same,"Death, days post-inoculum 0-1",[2]; [9],3 #/10 Mice
same,"Death, days post-inoculum 2-3",[2]; [9],2 #/10 Mice
same,"Death, days post-inoculum 4-6",[2]; [9],2 #/10 Mice
same,"Death, days post-inoculum 7-9",[2]; [9],1 #/10 Mice
same,Survivor No.,[2]; [9],2
"c1ccc([C@H]2CN3CCSC3=N2)cc1 [Levamisole, reference compound]",SERUM TITER (Reciprocal Serum Dilution),[5],128
same,"Death, days post-inoculum 0-1",[6],3 #/10 Mice
same,"Death, days post-inoculum 2-3",[6],3 #/10 Mice
same,"Death, days post-inoculum 4-6",[6],0 #/10 Mice
same,"Death, days post-inoculum 7-9",[6],0 #/10 Mice
same,Response Inc. %,[6],20%
same,Survivor No.,[6]; n = 10,4
rhamnopyranosyldecanoic acid,phospholipase A2 inhibition,[7],phospholipase A2 inhibition
